Some targets named below: Cannabinoid receptor 1 (Homo sapiens, UniProt P21554); Melanocortin receptor 4 (Homo sapiens, UniProt P32245); Mu-type opioid receptor (Homo sapiens, UniProt P35372).
In assay [1] the target is T1, Alpha-1A adrenergic receptor (Homo sapiens, UniProt P35348).
T1 sequence (P35348 whole entry): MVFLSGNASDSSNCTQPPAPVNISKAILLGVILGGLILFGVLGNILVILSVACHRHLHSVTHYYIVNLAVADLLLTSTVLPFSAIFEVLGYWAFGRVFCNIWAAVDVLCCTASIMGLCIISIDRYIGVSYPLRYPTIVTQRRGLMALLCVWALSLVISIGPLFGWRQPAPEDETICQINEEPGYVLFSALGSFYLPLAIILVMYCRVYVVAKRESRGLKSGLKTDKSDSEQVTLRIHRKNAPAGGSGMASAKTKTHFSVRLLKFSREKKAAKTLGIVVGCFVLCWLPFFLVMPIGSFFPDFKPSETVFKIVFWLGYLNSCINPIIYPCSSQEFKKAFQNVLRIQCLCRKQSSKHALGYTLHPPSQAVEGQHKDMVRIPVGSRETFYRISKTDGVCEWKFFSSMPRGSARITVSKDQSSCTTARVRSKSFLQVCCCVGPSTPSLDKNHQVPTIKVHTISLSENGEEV

Assay [2] concerns the target T2, Cholecystokinin receptor type A (Homo sapiens, UniProt P32238).
T2 sequence (P32238 whole entry): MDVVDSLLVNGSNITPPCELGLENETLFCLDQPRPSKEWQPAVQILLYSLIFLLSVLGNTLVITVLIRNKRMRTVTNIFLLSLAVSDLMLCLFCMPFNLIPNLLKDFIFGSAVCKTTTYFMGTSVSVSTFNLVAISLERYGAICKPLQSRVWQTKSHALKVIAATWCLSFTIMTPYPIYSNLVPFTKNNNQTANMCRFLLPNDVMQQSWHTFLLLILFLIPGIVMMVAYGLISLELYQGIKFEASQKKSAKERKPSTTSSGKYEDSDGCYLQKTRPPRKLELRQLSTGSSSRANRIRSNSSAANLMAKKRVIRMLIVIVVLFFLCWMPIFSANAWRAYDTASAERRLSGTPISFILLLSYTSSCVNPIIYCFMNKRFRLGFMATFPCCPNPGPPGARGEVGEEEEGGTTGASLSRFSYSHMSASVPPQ

Another assay concerns the target Histamine H2 receptor (Homo sapiens, UniProt P25021). It is filed as functional, cell-based.
Assay [3] concerns the target T3, 5-hydroxytryptamine receptor 3A (Homo sapiens, UniProt P46098).
T3 sequence (P46098 whole entry): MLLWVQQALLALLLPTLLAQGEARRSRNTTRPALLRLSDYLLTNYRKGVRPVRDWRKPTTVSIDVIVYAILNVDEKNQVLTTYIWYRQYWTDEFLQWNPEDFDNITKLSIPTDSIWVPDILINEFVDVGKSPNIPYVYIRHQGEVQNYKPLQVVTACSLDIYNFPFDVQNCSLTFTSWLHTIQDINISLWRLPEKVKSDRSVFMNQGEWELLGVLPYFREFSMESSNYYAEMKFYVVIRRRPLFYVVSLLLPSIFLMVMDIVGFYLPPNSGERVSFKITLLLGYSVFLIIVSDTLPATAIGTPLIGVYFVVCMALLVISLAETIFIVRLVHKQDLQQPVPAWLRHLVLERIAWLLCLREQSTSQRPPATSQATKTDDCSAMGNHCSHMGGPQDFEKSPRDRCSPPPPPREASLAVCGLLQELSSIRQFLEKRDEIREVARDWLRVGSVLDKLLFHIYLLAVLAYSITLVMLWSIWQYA
The assay is classed as functional.

For assay [4], the target named is 3',5'-cyclic-AMP phosphodiesterase 4D (Homo sapiens, UniProt Q08499). It is filed as functional.
Another assay addresses T4, Thromboxane A2 receptor (Homo sapiens, UniProt P21731).
T4 sequence (P21731 whole entry): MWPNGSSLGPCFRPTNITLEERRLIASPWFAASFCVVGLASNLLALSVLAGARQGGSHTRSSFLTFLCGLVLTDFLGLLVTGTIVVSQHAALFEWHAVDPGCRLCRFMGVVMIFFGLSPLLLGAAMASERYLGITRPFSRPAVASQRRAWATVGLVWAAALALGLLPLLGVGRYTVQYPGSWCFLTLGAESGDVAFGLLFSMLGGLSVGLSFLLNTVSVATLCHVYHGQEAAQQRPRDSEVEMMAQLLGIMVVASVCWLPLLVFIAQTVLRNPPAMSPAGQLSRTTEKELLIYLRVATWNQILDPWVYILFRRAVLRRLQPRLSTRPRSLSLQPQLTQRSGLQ

Assay [5] addresses Sodium-dependent serotonin transporter (Homo sapiens, UniProt P31645).
For assay [6], the target named is T1, Alpha-1A adrenergic receptor. The assay is classed as functional, cell-based.
Note: assay procedure not described here.

Sequence of Cannabinoid receptor 1 (P21554 whole entry): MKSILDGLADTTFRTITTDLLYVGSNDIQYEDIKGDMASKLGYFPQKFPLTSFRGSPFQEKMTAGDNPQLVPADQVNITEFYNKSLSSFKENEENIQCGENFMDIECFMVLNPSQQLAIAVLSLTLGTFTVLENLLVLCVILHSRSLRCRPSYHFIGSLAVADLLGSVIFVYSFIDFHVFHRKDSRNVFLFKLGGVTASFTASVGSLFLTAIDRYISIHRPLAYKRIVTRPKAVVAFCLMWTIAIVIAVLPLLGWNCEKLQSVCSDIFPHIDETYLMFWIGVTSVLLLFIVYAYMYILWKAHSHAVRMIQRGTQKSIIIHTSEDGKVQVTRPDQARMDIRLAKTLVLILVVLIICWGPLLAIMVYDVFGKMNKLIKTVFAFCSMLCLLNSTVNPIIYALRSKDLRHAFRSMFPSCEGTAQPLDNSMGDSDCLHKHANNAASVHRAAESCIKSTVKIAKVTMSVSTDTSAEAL
Sequence of Sodium-dependent serotonin transporter (P31645 whole entry): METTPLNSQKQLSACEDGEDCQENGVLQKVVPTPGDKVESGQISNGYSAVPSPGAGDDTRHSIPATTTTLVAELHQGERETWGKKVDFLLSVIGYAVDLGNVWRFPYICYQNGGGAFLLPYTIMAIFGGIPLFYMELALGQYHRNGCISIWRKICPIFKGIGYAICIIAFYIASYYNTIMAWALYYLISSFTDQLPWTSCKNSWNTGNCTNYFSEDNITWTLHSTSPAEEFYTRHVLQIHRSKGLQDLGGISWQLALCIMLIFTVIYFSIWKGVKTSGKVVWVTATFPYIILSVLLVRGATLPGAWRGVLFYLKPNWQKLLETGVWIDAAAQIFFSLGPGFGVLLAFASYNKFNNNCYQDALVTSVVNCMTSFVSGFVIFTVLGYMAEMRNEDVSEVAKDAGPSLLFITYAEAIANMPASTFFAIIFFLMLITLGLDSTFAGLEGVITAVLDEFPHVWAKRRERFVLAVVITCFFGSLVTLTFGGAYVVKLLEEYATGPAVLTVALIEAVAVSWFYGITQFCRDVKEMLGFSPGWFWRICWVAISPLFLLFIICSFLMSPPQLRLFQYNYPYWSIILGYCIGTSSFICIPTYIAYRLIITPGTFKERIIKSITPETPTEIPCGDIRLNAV
Sequence of Histamine H2 receptor (P25021 whole entry): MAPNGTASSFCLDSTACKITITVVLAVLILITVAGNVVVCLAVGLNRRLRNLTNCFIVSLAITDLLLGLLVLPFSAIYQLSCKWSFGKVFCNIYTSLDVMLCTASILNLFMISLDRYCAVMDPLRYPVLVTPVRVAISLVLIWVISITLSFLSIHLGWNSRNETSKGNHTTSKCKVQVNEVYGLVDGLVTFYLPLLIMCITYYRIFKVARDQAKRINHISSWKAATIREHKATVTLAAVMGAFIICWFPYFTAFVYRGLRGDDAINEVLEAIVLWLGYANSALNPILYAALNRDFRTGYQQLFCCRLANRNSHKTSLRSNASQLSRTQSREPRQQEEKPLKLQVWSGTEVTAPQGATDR
Sequence of Melanocortin receptor 4 (P32245 whole entry): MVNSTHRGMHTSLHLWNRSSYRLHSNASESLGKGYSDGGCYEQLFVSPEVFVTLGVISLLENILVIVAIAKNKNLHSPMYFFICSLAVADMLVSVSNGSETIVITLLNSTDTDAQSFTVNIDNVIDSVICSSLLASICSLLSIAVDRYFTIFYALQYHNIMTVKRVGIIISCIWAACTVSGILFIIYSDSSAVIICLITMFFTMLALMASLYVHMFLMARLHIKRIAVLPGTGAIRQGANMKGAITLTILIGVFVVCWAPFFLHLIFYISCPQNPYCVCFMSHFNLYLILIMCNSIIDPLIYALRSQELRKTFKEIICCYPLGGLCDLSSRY
Sequence of 3',5'-cyclic-AMP phosphodiesterase 4D (Q08499 whole entry): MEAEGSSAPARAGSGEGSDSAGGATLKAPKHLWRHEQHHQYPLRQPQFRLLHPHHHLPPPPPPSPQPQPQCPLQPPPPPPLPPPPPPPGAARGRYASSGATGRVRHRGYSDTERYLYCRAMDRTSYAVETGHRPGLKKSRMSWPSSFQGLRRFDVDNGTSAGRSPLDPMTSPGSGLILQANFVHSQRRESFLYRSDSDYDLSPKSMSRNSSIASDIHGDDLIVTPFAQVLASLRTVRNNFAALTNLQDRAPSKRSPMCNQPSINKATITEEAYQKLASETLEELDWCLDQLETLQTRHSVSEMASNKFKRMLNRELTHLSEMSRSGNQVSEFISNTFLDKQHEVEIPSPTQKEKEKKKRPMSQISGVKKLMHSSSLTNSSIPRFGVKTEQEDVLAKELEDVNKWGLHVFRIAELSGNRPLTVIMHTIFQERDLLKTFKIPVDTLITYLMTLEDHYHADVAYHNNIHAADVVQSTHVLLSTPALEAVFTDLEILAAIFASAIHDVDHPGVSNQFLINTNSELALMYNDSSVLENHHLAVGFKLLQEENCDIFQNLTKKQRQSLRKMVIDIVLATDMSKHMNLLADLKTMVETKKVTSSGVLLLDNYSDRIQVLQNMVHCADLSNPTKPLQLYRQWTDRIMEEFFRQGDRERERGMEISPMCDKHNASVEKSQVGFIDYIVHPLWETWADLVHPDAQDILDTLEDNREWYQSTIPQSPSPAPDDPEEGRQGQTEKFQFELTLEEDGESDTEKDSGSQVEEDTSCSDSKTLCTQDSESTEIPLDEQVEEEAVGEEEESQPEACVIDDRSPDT
Sequence of Mu-type opioid receptor (P35372 whole entry): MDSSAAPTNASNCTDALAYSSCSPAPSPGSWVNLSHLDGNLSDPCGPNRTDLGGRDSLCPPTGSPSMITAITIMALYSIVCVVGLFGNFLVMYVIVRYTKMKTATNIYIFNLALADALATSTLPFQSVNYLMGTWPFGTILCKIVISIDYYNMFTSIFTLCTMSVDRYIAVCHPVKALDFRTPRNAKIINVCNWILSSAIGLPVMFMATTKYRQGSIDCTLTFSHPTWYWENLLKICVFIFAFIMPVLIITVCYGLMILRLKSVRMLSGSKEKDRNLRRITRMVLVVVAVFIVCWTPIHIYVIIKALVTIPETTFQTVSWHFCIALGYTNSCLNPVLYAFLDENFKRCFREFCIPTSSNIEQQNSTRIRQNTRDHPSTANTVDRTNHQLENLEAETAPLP

Turning to `NCC[C@H](O)C(=O)N[C@@H]1C[C@H](N)[C@@H](O[C@H]2O[C@H](CN)[C@@H](O)[C@H](O)[C@H]2O)[C@H](O)[C@H]1O[C@H]1O[C@H](CO)[C@@H](O)[C@H](N)[C@H]1O` [AMIKACIN], the AC50 in assay [1] was more than 10 µM; in assay [2] it was more than 10 µM; at Cannabinoid receptor 1, more than 10 µM; at Histamine H2 receptor, more than 10 µM; in [3], more than 30 µM; at Melanocortin receptor 4, more than 10 µM. Moreover, the AC50 in assay [4] was more than 30 µM; at Thromboxane A2 receptor it was more than 10 µM; on Mu-type opioid receptor, more than 30 µM.

For `O=C(O)C1=C(CSc2nnnn2CS(=O)(=O)O)CS[C@@H]2[C@H](NC(=O)[C@H](O)c3ccccc3)C(=O)N12` [CEFONICID], the half-maximal activity concentration (AC50) (in assay [1]; in [2]; at Cannabinoid receptor 1; on Histamine H2 receptor; in assay [3]; on Melanocortin receptor 4) was more than 30 µM each time. For the same molecule, the AC50 in assay [4] was more than 30 µM; at Thromboxane A2 receptor it was more than 30 µM; in [5], 30 µM; in assay [6], more than 30 µM.

For `Cc1cc(O)c(C(=O)N[C@@H](C(=O)N[C@@H]2C(=O)N3C(C(=O)O)=C(CSc4nnnn4C)CS[C@H]23)c2ccc(O)cc2)cn1` [CEFPIRAMIDE], the AC50 (in assay [1]; in assay [2]; on Cannabinoid receptor 1; on Histamine H2 receptor; in assay [3]; on Melanocortin receptor 4) was more than 30 µM in each case. In addition, the AC50 (in assay [4]; at Thromboxane A2 receptor; in [5]) was more than 30 µM in each case.

For the molecule `Nc1nc(/C(=C/CC(=O)O)C(=O)N[C@@H]2C(=O)N3C(C(=O)O)=CCS[C@H]23)cs1` [CEFTIBUTEN], the AC50 (in assay [2]; at Cannabinoid receptor 1; at Histamine H2 receptor; in assay [3]; on Melanocortin receptor 4; in assay [4]) was more than 30 µM throughout. Besides, the AC50 (on Thromboxane A2 receptor; in assay [5]; in [6]) was more than 30 µM in each case.

With `COc1ccc2c3c1O[C@H]1[C@@H](O)C=C[C@H]4[C@@H](C2)N(C)CC[C@@]341` [CODEINE], the AC50 in assay [1] is more than 10 µM; in assay [2], more than 30 µM; at Cannabinoid receptor 1 it was more than 10 µM; on Histamine H2 receptor, more than 10 µM; in assay [3] it was more than 10 µM; on Melanocortin receptor 4, more than 30 µM. Also, the AC50 is 7.2 µM in assay [4], more than 30 µM at Thromboxane A2 receptor, more than 30 µM in [5] and more than 30 µM in assay [6].

Take `CCc1c(Cl)c(O)c(Cl)c(O)c1C(=O)O[C@H]1[C@H](O)[C@H](OC)[C@H](OC/C2=C\C=C\C[C@H](O)/C(C)=C/[C@H](CC)[C@@H](O[C@@H]3OC(C)(C)[C@@H](OC(=O)C(C)C)[C@H](O)[C@@H]3O)/C(C)=C/C(C)=C/C[C@@H]([C@@H](C)O)OC2=O)O[C@@H]1C` [FIDAXOMICIN]: the AC50 at Cannabinoid receptor 1 is more than 10 µM; in assay [3] it was more than 10 µM; at Melanocortin receptor 4, more than 30 µM; in [4], more than 30 µM; at Thromboxane A2 receptor, more than 30 µM; in [5], more than 30 µM. At Mu-type opioid receptor, the AC50 was more than 10 µM.

On to `Cc1ccc(S(=O)(=O)NC(=O)NN2CC3CCCC3C2)cc1` (stereo not given) [GLICLAZIDE], for which the AC50 is more than 30 µM in assay [1]; more than 10 µM in assay [2]; more than 10 µM at Cannabinoid receptor 1; more than 30 µM at Histamine H2 receptor; more than 30 µM in assay [3]; more than 10 µM on Melanocortin receptor 4. For the same molecule, the AC50 in assay [4] was more than 30 µM; on Thromboxane A2 receptor it was more than 10 µM; at Mu-type opioid receptor, more than 30 µM.

`CC(C(=O)O)c1ccc(N2Cc3ccccc3C2=O)cc1` (stereo not given) [INDOPROFEN]: the AC50 (in assay [1]; in [2]; on Cannabinoid receptor 1; at Histamine H2 receptor; in assay [3]; in assay [4]) was more than 30 µM throughout. Further, the AC50 (on Thromboxane A2 receptor; in assay [5]; on Mu-type opioid receptor; in assay [6]) was more than 30 µM in each case.

As for `CO[C@@H]1[C@@H](O[C@@H]2O[C@H](C)[C@@H](O[C@H]3C[C@@](C)(O)[C@@H](OC(=O)CC(C)C)[C@H](C)O3)[C@H](N(C)C)[C@H]2O)[C@@H](CC=O)C[C@@H](C)[C@@H](O)/C=C/C=C/C[C@@H](C)OC(=O)C[C@H]1OC(C)=O` [JOSAMYCIN], the AC50 in assay [2] was more than 10 µM; at Cannabinoid receptor 1, more than 10 µM; at Histamine H2 receptor it was more than 10 µM; in assay [3], more than 30 µM; on Melanocortin receptor 4 it was more than 10 µM; in [4], more than 30 µM. The AC50 is more than 10 µM at Thromboxane A2 receptor, more than 10 µM in assay [5] and more than 30 µM at Mu-type opioid receptor.

Take `COC(=O)C1=C(C)NC(C)=C(C(=O)OC(C)(C)CN(C)CCC(c2ccccc2)c2ccccc2)C1c1cccc([N+](=O)[O-])c1` (stereo not given) [LERCANIDIPINE]: the AC50 in [1] is 5.7 µM; in assay [2], more than 30 µM; at Cannabinoid receptor 1, 6.6 µM; at Histamine H2 receptor, more than 30 µM; in assay [3], more than 30 µM; at Melanocortin receptor 4, more than 30 µM. Further, the AC50 (in assay [4]; on Thromboxane A2 receptor; in assay [5]) was more than 30 µM throughout.

As for `CC(Oc1c(Cl)cccc1Cl)C1=NCCN1` (stereo not given) [LOFEXIDINE], the AC50 in [1] was 0.803 µM; in [2], more than 30 µM; on Cannabinoid receptor 1, more than 30 µM; on Histamine H2 receptor, more than 30 µM; in [3], more than 30 µM; in assay [4] it was more than 30 µM. The AC50 on Thromboxane A2 receptor is more than 30 µM; in assay [5] it was 11 µM.

Consider `N#Cc1ccc([C@H]2CCc3cncn32)c(F)c1` [OSILODROSTAT], for which the AC50 (in assay [2]; at Cannabinoid receptor 1; in assay [3]; at Melanocortin receptor 4; in assay [4]; at Thromboxane A2 receptor) was more than 10 µM each time. Moreover, the AC50 at Mu-type opioid receptor is more than 10 µM.

In the case of `CN1CCC(=C2c3ccccc3CCc3sccc32)CC1` [PIZOTYLINE], the AC50 in assay [2] is more than 30 µM; on Cannabinoid receptor 1, 1.66 µM; at Histamine H2 receptor, more than 10 µM; in assay [3], 1.4 µM; at Melanocortin receptor 4, more than 30 µM; in assay [4] it was more than 10 µM. The AC50 at Thromboxane A2 receptor is more than 30 µM; in assay [5] it was 8.88 µM; at Mu-type opioid receptor, more than 10 µM; in assay [6] it was 3.32 µM.

For `COC(=O)[C@H]1[C@H]2C[C@@H]3c4[nH]c5cc(OC)ccc5c4CCN3C[C@H]2C[C@@H](OC(=O)/C=C/c2cc(OC)c(OC)c(OC)c2)[C@@H]1OC` [RESCINNAMINE], the AC50 in assay [2] was more than 10 µM; at Cannabinoid receptor 1, more than 10 µM; on Histamine H2 receptor, more than 30 µM; in [3] it was more than 30 µM; on Melanocortin receptor 4, more than 10 µM; in [4] it was more than 30 µM. The AC50 is more than 10 µM on Thromboxane A2 receptor, more than 30 µM in [5] and more than 10 µM at Mu-type opioid receptor.

The term AC50 denotes the concentration giving half of the maximal activity seen. Read a low AC50 as activity at low concentration.

The record behind these values is ChEMBL document CHEMBL5291721, “A preclinical secondary pharmacology resource illuminates target-adverse drug reaction associations of marketed drugs” (Nat Commun, 2023).
